# Data reported in ChEMBL document CHEMBL4422625, “Structure Elucidation, Conformation, and Configuration of Cytotoxic 6-Heptyl-5,6-dihydro-2 H-pyran-2-ones from Hyptis Species and Their Molecular Docking to α-Tubulin” (J Nat Prod, 2019).
# What was measured:
# Type in all cases: functional, cell-based
# MCF7 = test: Cytotoxicity against human MCF7 cells after 48 hrs by sulforhodamine B assay; conditions: MCF7, 48 h
# HCT-15 = test: Cytotoxicity against human HCT15 cells after 48 hrs by sulforhodamine B assay; conditions: HCT-15, 48 h
# HeLa = test: Cytotoxicity against human HeLa cells after 48 hrs by sulforhodamine B assay
SMILES,IC50 (MCF7) [µM],IC50 (HCT-15) [µM],IC50 (HeLa) [µM]
CCCC[C@@H](/C=C\[C@@H]1OC(=O)C[C@@H](OC)[C@@H]1OC(C)=O)OC(C)=O,> 10,> 10,> 10
CCCC[C@H](/C=C\[C@@H]1OC(=O)C=C[C@@H]1O)OC(C)=O,1.3,9.5,1.4
CCCC[C@H](O)/C=C\[C@@H]1OC(=O)C=C[C@@H]1O,5.9,7.4,6.2
CCCC[C@H](O)/C=C\[C@@H]1OC(=O)C[C@@H](OC)[C@@H]1O,> 10,> 10,> 10
CCCC[C@H](/C=C\[C@@H]1OC(=O)C=C[C@@H]1OC(C)=O)OC(C)=O,0.5,0.8,0.7
CCCC[C@H](OC(C)=O)[C@@H](O)[C@H](O)[C@@H]1OC(=O)C=C[C@@H]1OC(C)=O,9.8,9.9,6.9
CCCC[C@H](OC(C)=O)[C@@H](OC(C)=O)[C@H](OC(C)=O)[C@@H]1OC(=O)C=C[C@@H]1OC(C)=O,7.7,> 10,2.7
CCCC[C@@H](/C=C\[C@@H]1OC(=O)C=C[C@@H]1OC(C)=O)OC(C)=O [PECTINOLIDE A],3.2,5.7,3.2
CCCC[C@H](O)/C=C\[C@@H]1OC(=O)C=C[C@@H]1OC(C)=O [PECTINOLIDE B],9.3,5.2,4.1
CCCC[C@@H](/C=C\[C@@H]1OC(=O)C=C[C@@H]1O)OC(C)=O [PECTINOLIDE C],1,2.3,0.3
C/C=C/C[C@H](C)[C@@H](OC)[C@@H](C)[C@H](O)C[C@H]1OC(=O)C=C[C@H]1CC [PIRONETIN],0.015,< 0.015,0.092
CC[C@]1(O)C[C@@H]2CN(CCc3c([nH]c4ccccc34)[C@@](C(=O)OC)(c3cc4c(cc3OC)N(C)[C@H]3[C@@](O)(C(=O)OC)[C@H](OC(C)=O)[C@]5(CC)C=CCN6CC[C@]43[C@@H]65)C2)C1 [VINBLASTINE],0.012,0.011,0.011
